Source: ChEMBL document CHEMBL5230115, “Bioactive pyrrole-based compounds with target selectivity” (Eur J Med Chem, 2020)
Values belong to the molecule of their own block, whether it stands above or below them.

Legend:
A549 [1] = assay: Antiproliferative activity against human A549 cells assessed as cell growth inhibition measured after 24 hrs by MTT assay; format: functional, cell-based; conditions: A549, 24 h
PC-3 = assay: Antiproliferative activity against human PC-3 cells assessed as cell growth inhibition measured after 24 hrs by MTT assay; format: functional, cell-based; conditions: PC-3, 24 h
A549 [2] = assay: Antiproliferative activity against human A549 cells assessed as cell growth inhibition at 5 uM in presence of etoposide by CellTiter-Glo luminescent assay relative to control; format: functional; set-up: scale not given: the % may be the effect or the level left
A549 [3] = assay: Antiproliferative activity against human A549 cells assessed as cell growth inhibition at 5 uM in presence of doxorubicin by CellTiter-Glo luminescent assay relative to control; format: functional; set-up: scale not given: the % may be the effect or the level left
[4] = target: Vascular endothelial growth factor receptor 2 (Homo sapiens, UniProt P35968); assay: Inhibition of VEGFR2 (unknown origin) at 25 nM using Poly(Glu, Tyr) as substrate by Kinase-Glo plus luminescent kinase assay
[5] = target: Mitogen-activated protein kinase 3 (Homo sapiens) (UniProt P27361); assay: Inhibition of ERK1 (unknown origin) at 25 nM relative to control
Chain of Mitogen-activated protein kinase 3 (Homo sapiens) (P27361 whole entry): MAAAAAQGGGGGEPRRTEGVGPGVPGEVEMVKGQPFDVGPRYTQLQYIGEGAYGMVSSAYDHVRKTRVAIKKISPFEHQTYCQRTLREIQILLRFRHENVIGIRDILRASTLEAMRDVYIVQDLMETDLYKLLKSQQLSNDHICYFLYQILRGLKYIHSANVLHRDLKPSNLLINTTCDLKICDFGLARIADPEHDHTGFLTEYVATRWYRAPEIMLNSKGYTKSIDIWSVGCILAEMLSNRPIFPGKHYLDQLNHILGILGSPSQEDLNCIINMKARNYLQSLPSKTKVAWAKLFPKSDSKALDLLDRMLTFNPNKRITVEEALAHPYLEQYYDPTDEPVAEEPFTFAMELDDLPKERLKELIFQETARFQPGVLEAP

Chain of Vascular endothelial growth factor receptor 2 (P35968 whole entry): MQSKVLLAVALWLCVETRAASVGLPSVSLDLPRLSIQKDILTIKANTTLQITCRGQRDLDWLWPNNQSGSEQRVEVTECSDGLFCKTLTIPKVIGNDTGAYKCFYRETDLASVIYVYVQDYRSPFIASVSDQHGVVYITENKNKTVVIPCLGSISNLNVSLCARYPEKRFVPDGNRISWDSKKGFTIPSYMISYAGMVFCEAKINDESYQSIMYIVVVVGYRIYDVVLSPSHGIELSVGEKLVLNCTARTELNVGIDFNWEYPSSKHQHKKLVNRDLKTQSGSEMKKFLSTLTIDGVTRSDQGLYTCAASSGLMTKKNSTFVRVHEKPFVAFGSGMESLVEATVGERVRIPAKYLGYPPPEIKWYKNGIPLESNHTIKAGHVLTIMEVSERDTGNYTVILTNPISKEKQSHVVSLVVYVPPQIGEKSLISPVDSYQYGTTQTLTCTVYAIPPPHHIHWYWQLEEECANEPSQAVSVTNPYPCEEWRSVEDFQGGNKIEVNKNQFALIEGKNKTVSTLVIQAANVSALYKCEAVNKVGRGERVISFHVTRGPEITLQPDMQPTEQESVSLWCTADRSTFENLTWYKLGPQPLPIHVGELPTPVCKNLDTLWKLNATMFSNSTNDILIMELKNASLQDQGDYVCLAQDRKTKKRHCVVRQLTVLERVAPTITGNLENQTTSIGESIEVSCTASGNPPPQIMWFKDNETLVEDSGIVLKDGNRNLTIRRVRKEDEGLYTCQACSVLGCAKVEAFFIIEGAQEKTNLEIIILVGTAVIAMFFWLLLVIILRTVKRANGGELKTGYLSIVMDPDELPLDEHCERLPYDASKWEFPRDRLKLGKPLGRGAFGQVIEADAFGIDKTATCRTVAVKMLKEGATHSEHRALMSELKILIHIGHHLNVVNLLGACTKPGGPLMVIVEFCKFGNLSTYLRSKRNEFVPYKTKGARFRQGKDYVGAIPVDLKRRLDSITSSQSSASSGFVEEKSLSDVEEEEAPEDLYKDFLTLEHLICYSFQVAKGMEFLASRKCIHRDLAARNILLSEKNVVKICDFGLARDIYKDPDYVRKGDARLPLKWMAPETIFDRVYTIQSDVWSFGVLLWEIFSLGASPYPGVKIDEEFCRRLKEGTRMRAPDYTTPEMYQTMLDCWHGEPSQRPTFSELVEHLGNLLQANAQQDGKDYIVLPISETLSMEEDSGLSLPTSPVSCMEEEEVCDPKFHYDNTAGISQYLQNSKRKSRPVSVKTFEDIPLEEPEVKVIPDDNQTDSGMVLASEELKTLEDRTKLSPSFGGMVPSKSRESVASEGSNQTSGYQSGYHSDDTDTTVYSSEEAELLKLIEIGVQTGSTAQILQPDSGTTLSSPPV

SMILES: Cn1ccc2c(Nc3cccc(Br)c3)nc(NC(=O)Nc3ccc(Cl)c(C(F)(F)F)c3)nc21
- IC50 (PC-3): 1040 nM

SMILES: COc1ccc(-c2nc3ccc(C(=O)Nc4cn(C)c(C(=O)Nc5cc(C(=O)NCCCN(C)C)n(CCCN)c5)n4)cc3[nH]2)cc1
- Activity (A549 [2]): 50%
- Activity (A549 [3]): 22%

SMILES: Cc1cccc(NC(=O)Nc2ccc(Oc3ncnc4[nH]c(C)c(C)c34)cc2)c1
- IC50 [4]: 13.6 nM
- inhibition [5]: 50%

SMILES: Cc1cccc(NC(=O)Nc2ccc(Nc3ncnc4[nH]c(C)c(C)c34)cc2)c1
- IC50 [4]: 11.9 nM
- inhibition [5]: 50%

Now from value to molecule:

- IC50 (A549 [1]): 350 nM
SMILES: Cn1ccc2c(Nc3ccc(F)c(Cl)c3)nc(NC(=O)Nc3cccc(C(F)(F)F)c3)nc21

- IC50 (A549 [1]): 1560 nM
SMILES: Cn1ccc2c(Nc3ccc(Cl)cc3)nc(NC(=O)Nc3ccc(F)cc3)nc21

- IC50 (A549 [1]): 1480 nM
SMILES: Cn1ccc2c(Nc3cccc(Br)c3)nc(NC(=O)Nc3ccc(F)c(C(F)(F)F)c3)nc21
